The record followed here is ChEMBL document CHEMBL2010683, “Discovery of the first small molecule inhibitor of human DDX3 specifically designed to target the RNA binding site: towards the next generation HIV-1 inhibitors” (Bioorg Med Chem Lett, 2012).

SMILES strings stand for the structures. Where only a bound is given, the exact number is not on record here.

Series [1] is described as follows: Inhibition of Hepatitis C virus NS3 helicase expressed in Escherichia coli assessed as conversion of a 6-FAM-labeled double stranded RNA in to single stranded nucleic acid by laser scanning densitometric analysis. More on the design: species or system Hepacivirus hominis.
The target of series [2] is T1, ATP-dependent RNA helicase DDX1 (Homo sapiens, UniProt Q92499).
T1 sequence (Q92499 whole entry): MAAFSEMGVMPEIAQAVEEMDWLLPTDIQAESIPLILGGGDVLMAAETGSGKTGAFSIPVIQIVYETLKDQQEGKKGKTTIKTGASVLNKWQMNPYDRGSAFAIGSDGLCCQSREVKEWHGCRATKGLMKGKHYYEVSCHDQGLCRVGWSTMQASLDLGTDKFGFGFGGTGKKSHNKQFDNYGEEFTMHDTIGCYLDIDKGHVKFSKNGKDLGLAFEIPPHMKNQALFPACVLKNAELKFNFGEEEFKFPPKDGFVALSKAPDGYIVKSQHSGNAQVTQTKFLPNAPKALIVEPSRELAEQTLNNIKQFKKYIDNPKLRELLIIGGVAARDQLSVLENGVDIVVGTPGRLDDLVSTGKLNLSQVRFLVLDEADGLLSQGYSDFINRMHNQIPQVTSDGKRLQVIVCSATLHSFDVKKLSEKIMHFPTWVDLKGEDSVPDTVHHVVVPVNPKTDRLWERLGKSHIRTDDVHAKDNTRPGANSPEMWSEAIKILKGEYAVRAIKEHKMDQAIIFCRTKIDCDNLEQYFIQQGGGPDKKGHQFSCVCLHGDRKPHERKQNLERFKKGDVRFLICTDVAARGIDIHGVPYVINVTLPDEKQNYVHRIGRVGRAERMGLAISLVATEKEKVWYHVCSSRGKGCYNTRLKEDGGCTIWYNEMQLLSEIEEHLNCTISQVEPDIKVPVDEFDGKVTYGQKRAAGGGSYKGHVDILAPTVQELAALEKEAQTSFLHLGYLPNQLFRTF
Put plainly: Inhibition of human recombinant DDX1 helicase activity expressed in Escherichia coli assessed as conversion of a 6-FAM-labeled double stranded RNA in to single stranded nucleic acid by laser scanning densitometric analysis.

In series [3] the target is T2, ATP-dependent RNA helicase DDX3X (Homo sapiens, UniProt O00571). The series is described as follows: Inhibition of human recombinant DDX3 ATPase activity expressed in Escherichia coli assessed as [gamma-32P] ATP hydrolysis after 5 mins by densitometric analysis.
Target sequence in this assay (O00571 whole entry): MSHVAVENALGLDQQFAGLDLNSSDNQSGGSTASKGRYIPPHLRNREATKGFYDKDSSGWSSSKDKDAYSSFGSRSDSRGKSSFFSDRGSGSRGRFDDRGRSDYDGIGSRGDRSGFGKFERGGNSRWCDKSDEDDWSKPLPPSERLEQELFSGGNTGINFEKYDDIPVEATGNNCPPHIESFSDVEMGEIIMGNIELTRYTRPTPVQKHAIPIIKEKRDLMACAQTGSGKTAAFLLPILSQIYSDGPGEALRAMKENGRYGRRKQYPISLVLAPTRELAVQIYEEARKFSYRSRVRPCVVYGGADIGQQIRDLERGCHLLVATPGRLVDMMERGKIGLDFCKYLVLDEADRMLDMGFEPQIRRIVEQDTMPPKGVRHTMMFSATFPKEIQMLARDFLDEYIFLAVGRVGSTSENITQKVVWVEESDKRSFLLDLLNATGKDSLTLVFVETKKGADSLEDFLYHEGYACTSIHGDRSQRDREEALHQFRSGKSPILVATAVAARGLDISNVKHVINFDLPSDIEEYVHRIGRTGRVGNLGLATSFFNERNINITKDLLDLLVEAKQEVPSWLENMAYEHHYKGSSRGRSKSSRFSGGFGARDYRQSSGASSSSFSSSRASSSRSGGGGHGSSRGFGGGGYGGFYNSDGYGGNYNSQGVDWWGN
Series [4] can be described thus: Cytotoxicity against human PBMC cells assessed as cell viability after 72 hrs by MTS assay. It counts as cell-based. Background: Tetrazolium assays rely on reduction of a dye to a coloured formazan, in cell work by metabolically active cells.
For series [5], the system named is Human immunodeficiency virus 1. Put plainly: Antiviral activity against multidrug-resistant HIV1 infected in phytohemagglutininin-P stimulated human PBMC cells assessed as inhibition of viral replication after 72 hrs post infection. It counts as functional, organism-based. Particulars: Human immunodeficiency virus 1, PBMC.
The nature of series [6]: Selectivity ratio of CC50 for human PBMC cells to EC50 for multidrug-resistant HIV1 infected in phytohemagglutininin-P-stimulated human PBMC cells. Particulars: read-out: Ratio CC50/EC50. It counts as ADME, cell-based.
In series [7] the target is T2, ATP-dependent RNA helicase DDX3X. Put plainly: Inhibition of human recombinant DDX3 helicase activity expressed in Escherichia coli assessed as conversion of a 6-FAM-labeled double stranded RNA in to single stranded nucleic acid by laser scanning densitometric analysis.
Target sequence in this assay (O00571 whole entry): as above
For series [8] the target is unchanged.
Target sequence in this assay (O00571 2-662 limits assumed): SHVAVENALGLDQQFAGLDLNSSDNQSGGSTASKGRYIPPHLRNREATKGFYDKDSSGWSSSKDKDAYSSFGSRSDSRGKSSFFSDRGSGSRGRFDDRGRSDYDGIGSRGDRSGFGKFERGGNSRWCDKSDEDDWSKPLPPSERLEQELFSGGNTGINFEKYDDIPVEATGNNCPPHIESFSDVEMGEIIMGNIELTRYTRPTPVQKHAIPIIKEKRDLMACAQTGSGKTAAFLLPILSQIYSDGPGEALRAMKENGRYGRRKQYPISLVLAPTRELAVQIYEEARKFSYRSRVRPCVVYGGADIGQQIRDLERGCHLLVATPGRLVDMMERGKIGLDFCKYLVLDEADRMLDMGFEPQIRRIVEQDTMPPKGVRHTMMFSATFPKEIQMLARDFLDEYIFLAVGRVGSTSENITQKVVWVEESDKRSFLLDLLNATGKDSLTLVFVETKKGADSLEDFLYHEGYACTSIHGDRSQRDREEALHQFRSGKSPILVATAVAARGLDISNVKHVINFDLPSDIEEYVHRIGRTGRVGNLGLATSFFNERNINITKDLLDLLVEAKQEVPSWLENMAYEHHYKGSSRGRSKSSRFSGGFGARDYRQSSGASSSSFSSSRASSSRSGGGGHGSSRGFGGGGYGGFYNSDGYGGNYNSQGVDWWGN
Description: Competitive inhibition of human recombinant DDX3 expressed in Escherichia coli using 50 nM double strand 18/36mer RNA substrate by PAGE analysis
Series [9] shares this target. The source holds these as a separate data set.
Target sequence in this assay (O00571 2-662 limits assumed): as above
Description: Competitive inhibition of human recombinant DDX3 expressed in Escherichia coli using 100 nM double strand 18/36mer RNA substrate by PAGE analysis
Series [10] has the same target. This is another data set of the same source.
Target sequence in this assay (O00571 2-662 limits assumed): as above
Description: Competitive inhibition of human recombinant DDX3 expressed in Escherichia coli using 25 nM double strand 18/36mer RNA substrate by PAGE analysis

`Cc1ccccc1NC(=O)Nc1cccc([N+](=O)[O-])c1`: the IC50 (in general, the point on the concentration scale where inhibition reaches its midpoint) is above 500 µM in series [1], above 500 µM in [2] and 20 µM in [3]. For the same molecule, the 50% cytotoxic concentration (CC50) (commonly the concentration that lowers cell viability or growth by half) at 72 h in series [4] is 100 µM. The 50% effective concentration (EC50) (as a rule, the concentration at which the effect is half-maximal) in series [5] came out at 10 µM. In addition, the selectivity ratio in series [6] amounted to 10.
As for `O=C(Nc1ccc(-c2nc3ccccc3[nH]2)cc1)c1cc2ccccc2o1`, the IC50 in series [1] was above 500 µM; in series [2], above 500 µM; in series [3] it was above 1000 µM; in [7] it was 42 µM.
`O=C(Nc1cccc([N+](=O)[O-])c1)Nc1cccc([N+](=O)[O-])c1`: the 50% inhibitory concentration (IC50) in series [1] is above 500 µM; in [2], above 500 µM; in series [3], above 1000 µM.
Take `Cc1ccccc1NC(=O)Nc1cccc(N)c1`: the IC50 was above 500 µM in [1], above 500 µM in [2], 40 µM in [3] and 5 µM in series [7]. The ID50 in [8] turned out to be 435 µM; in series [9], 950 µM; in series [10] it was 4.5 µM. The half-maximal cytotoxic concentration (CC50) at 72 h in [4] was 100 µM. In series [5], the concentration giving a half-maximal response (EC50) turned out to be 15 µM. Further, the selectivity ratio in series [6] amounted to 10.
As to `Cc1ccccc1NC(=O)Nc1cccc(NC(=O)Nc2ccccc2C)c1`, the IC50 in [1] was above 500 µM; in series [2], above 500 µM; in series [3], 17 µM; in [7], 65 µM.
For `Nc1cccc(NC(=O)Nc2cccc(N)c2)c1`, the half-maximal inhibitory concentration (IC50) in series [1] was above 500 µM; in series [2], above 500 µM; in series [3] it was above 1000 µM.
Regarding `Cc1[nH]c2ccccc2c1C1=CC(c2ccccc2)=NN=C(c2ccccc2)C1`, the half-inhibitory concentration (IC50) is above 500 µM in series [1], above 500 µM in series [2], above 1000 µM in series [3] and 6 µM in series [7].
